Results taken from ChEMBL document CHEMBL1129815, “Ester prodrugs of ampicillin tailored for intracellular accumulation” (Bioorg Med Chem Lett, 1997).
≈ marks a conversion by molar mass, not a printed value.

System: Staphylococcus aureus
Assay: The minimum inhibition concentration (MIC) against Staphylococcus aureus after hydrolysis 24 hr in phosphate buffer was determined
Assay type: functional
Conditions: not given

MIC | SMILES
1.16 µM (≈ 0.627 µg/mL) | CC1(C)S[C@@H]2[C@H](NC(=O)[C@H](N)c3ccccc3)C(=O)N2[C@H]1C(=O)OCN1C(=O)CC(=C2CCCCC2)C1=O [listing 1 of 2 here]
0.53 µM (≈ 0.27 µg/mL) | CC1(C)S[C@@H]2[C@H](NC(=O)[C@H](N)c3ccccc3)C(=O)N2[C@H]1C(=O)OCN1C(=O)c2ccccc2C1=O [listing 1 of 2 here]
0.65 µM (≈ 0.301 µg/mL) | CC(C)(C)C(=O)OCOC(=O)[C@@H]1N2C(=O)[C@@H](NC(=O)C(N)c3ccccc3)[C@H]2SC1(C)C (single isomer, unassigned) [PIVAMPICILLIN]

System: not listed separately
Assay: Half-life in 0.02 M phosphate buffer, 0.15 M NaCl, at a pH of 7.4, at 37 degree Celsius was determined
Assay type: ADME
Conditions: pH 7.4

SMILES | half-life
CC1(C)S[C@@H]2[C@H](NC(=O)[C@H](N)c3ccccc3)C(=O)N2[C@H]1C(=O)OCN1C(=O)CC(=C2CCCCC2)C1=O [listing 2 of 2 here] | 5.13 h
CC1(C)S[C@@H]2[C@H](NC(=O)[C@H](N)c3ccccc3)C(=O)N2[C@H]1C(=O)OCN1C(=O)c2ccccc2S1(=O)=O | 1.08 h
CC1(C)S[C@@H]2[C@H](NC(=O)[C@H](N)c3ccccc3)C(=O)N2[C@H]1C(=O)OCN1C(=O)c2ccccc2C1=O [listing 2 of 2 here] | 1.08 h

Next, values leading:

half-life | SMILES
2.5 h | CC1(C)S[C@@H]2[C@H](NC(=O)[C@H](N)c3ccccc3)C(=O)N2[C@H]1C(=O)OCn1c(=O)oc2ccccc21
3 h | CC1(C)S[C@@H]2[C@H](NC(=O)[C@H](N)c3ccccc3)C(=O)N2[C@H]1C(=O)OCN1C(=O)CCCC1=O
2.5 h | CC1(C)S[C@@H]2[C@H](NC(=O)[C@H](N)c3ccccc3)C(=O)N2[C@H]1C(=O)OCN1C(=O)CCC1=O
3.58 h | CC1(C)S[C@@H]2[C@H](NC(=O)[C@H](N)c3ccccc3)C(=O)N2[C@H]1C(=O)OCOc1ccccc1
2 h | CC(C)(C)C(=O)OCOC(=O)[C@@H]1N2C(=O)[C@@H](NC(=O)C(N)c3ccccc3)[C@H]2SC1(C)C (single isomer, unassigned) [PIVAMPICILLIN]
